The source made the active and inactive calls. The rule behind the calls is not given here.

The test system of this series is CCRIS mutagenicity, Ames/micronucleus/aberration tests. The series can be described thus: CCRIS mutagenicity studies.
The mark [1] stands for this setting: Test System: AMES SALMONELLA TYPHIMURIUM, Strain/Indicator: TA98, Metabolic Activation: RAT, LIVER, S-9, PHENOBARBITAL, Method: STANDARD PLATE.
The mark [2] stands for this setting: Test System: AMES SALMONELLA TYPHIMURIUM, Strain/Indicator: TA100, Metabolic Activation: RAT, LIVER, S-9, PHENOBARBITAL, Method: STANDARD PLATE.
The mark [3] stands for this setting: Test System: AMES SALMONELLA TYPHIMURIUM, Strain/Indicator: TA100, Metabolic Activation: NONE, Method: STANDARD PLATE.
The mark [4] stands for this setting: Test System: AMES SALMONELLA TYPHIMURIUM, Strain/Indicator: TA97, Metabolic Activation: NONE, Method: STANDARD PLATE.
Setting [5] is: Test System: AMES SALMONELLA TYPHIMURIUM, Strain/Indicator: TA98, Metabolic Activation: NONE, Method: STANDARD PLATE.
The mark [6] stands for this setting: Test System: AMES SALMONELLA TYPHIMURIUM, Strain/Indicator: TA98, Metabolic Activation: RAT, LIVER, S-9, AROCLOR 1254, Method: STANDARD PLATE.
Setting [7] is: Test System: AMES SALMONELLA TYPHIMURIUM, Strain/Indicator: TA100, Metabolic Activation: RAT, LIVER, S-9, AROCLOR 1254, Method: STANDARD PLATE.

As to `COc1cc(O)c2c(=O)c3c(OC)cc4c(c3oc2c1OC)[C@@H]1C=CO[C@@H]1O4`, the mutagenic call under setting [1] is “inactive; negative” and the mutagenic call under setting [2] is “active; positive”.
`O=C1OCC(CCl)=C1Cl`: under setting [3], the mutagenic call was “active; positive”.
On to `CN=C1C=CC(=C(c2ccc(N(C)C)cc2)c2ccc(N(C)C)cc2)C=C1`, for which the mutagenic call by setting is: under setting [4], “inactive; negative”; (Test System: AMES SALMONELLA TYPHIMURIUM, Strain/Indicator: TA97, Metabolic Activation: RAT, LIVER, S-9, AROCLOR 1254, Method: STANDARD PLATE) “inactive; negative”; under setting [5], “inactive; negative”; under setting [6], “inactive; negative”; under setting [3], “inactive; negative”; under setting [7], “inactive; negative”. Also, the mutagenic call was “inactive; negative” (Test System: AMES SALMONELLA TYPHIMURIUM, Strain/Indicator: TA104, Metabolic Activation: NONE, Method: STANDARD PLATE) and “inactive; negative” (Test System: AMES SALMONELLA TYPHIMURIUM, Strain/Indicator: TA104, Metabolic Activation: RAT, LIVER, S-9, AROCLOR 1254, Method: STANDARD PLATE).
For `COC(=O)Nc1nc2ccc(C(=O)c3ccc(F)cc3)cc2[nH]1`, the mutagenic call under setting [5] was “inactive; negative”, the mutagenic call under setting [6] is “inactive; negative”, the mutagenic call under setting [3] is “inactive; negative” and the mutagenic call under setting [7] was “inactive; negative”.
As to `CCCNC(=O)NS(=O)(=O)c1ccc(Cl)cc1`, the mutagenic call runs as follows: (End Point: IN VITRO CHROMOSOMAL ABERRATIONS, Test System: CHO CELLS, Metabolic Activation: NONE) “inactive; negative”; (End Point: IN VITRO CHROMOSOMAL ABERRATIONS, Test System: CHO CELLS, Metabolic Activation: RAT, LIVER, S-9, AROCLOR 1254) “inactive; negative”; (Test System: AMES SALMONELLA TYPHIMURIUM, Strain/Indicator: TA98, Metabolic Activation: HAMSTER, LIVER, S-9, AROCLOR 1254 (10%), Method: PREINCUBATION) “inactive; negative”; (Test System: AMES SALMONELLA TYPHIMURIUM, Strain/Indicator: TA98, Metabolic Activation: NONE, Method: PREINCUBATION) “inactive; negative”; (Test System: AMES SALMONELLA TYPHIMURIUM, Strain/Indicator: TA98, Metabolic Activation: RAT, LIVER, S-9, AROCLOR 1254 (10%), Method: PREINCUBATION) “inactive; negative”; (Test System: AMES SALMONELLA TYPHIMURIUM, Strain/Indicator: TA100, Metabolic Activation: HAMSTER, LIVER, S-9, AROCLOR 1254 (10%), Method: PREINCUBATION) “inactive; negative”. The mutagenic call by setting is: (Test System: AMES SALMONELLA TYPHIMURIUM, Strain/Indicator: TA100, Metabolic Activation: NONE, Method: PREINCUBATION) “inactive; negative”; (Test System: AMES SALMONELLA TYPHIMURIUM, Strain/Indicator: TA100, Metabolic Activation: RAT, LIVER, S-9, AROCLOR 1254 (10%), Method: PREINCUBATION) “inactive; negative”; (Test System: AMES SALMONELLA TYPHIMURIUM, Strain/Indicator: TA1535, Metabolic Activation: HAMSTER, LIVER, S-9, AROCLOR 1254 (10%), Method: PREINCUBATION) “inactive; negative”; (Test System: AMES SALMONELLA TYPHIMURIUM, Strain/Indicator: TA1535, Metabolic Activation: NONE, Method: PREINCUBATION) “inactive; negative”; (Test System: AMES SALMONELLA TYPHIMURIUM, Strain/Indicator: TA1535, Metabolic Activation: RAT, LIVER, S-9, AROCLOR 1254 (10%), Method: PREINCUBATION) “inactive; negative”; (Test System: AMES SALMONELLA TYPHIMURIUM, Strain/Indicator: TA1537, Metabolic Activation: HAMSTER, LIVER, S-9, AROCLOR 1254 (10%), Method: PREINCUBATION) “inactive; negative”. Moreover, the mutagenic call runs as follows: (Test System: AMES SALMONELLA TYPHIMURIUM, Strain/Indicator: TA1537, Metabolic Activation: NONE, Method: PREINCUBATION) “inactive; negative”; (Test System: AMES SALMONELLA TYPHIMURIUM, Strain/Indicator: TA1537, Metabolic Activation: RAT, LIVER, S-9, AROCLOR 1254 (10%), Method: PREINCUBATION) “inactive; negative”; (Test System: MOUSE LYMPHOMA, Strain/Indicator: L5178Y (TK+/TK-), Metabolic Activation: NONE, Method: SUSPENSION/PLATE) “inactive; negative”; (Test System: MOUSE LYMPHOMA, Strain/Indicator: L5178Y (TK+/TK-), Metabolic Activation: RAT, LIVER, S-9, AROCLOR 1254, Method: SUSPENSION/PLATE) “inactive; negative”.
As to `Cc1ccc2ccc3c4ccccc4cc4ccc1c2c43`, the mutagenic call was “active; positive” (Test System: AMES SALMONELLA TYPHIMURIUM, Strain/Indicator: TA100, Metabolic Activation: RAT, INTACT HEPATOCYTES, AROCLOR 1254, Method: PREINCUBATION) and “active; positive” (Test System: AMES SALMONELLA TYPHIMURIUM, Strain/Indicator: TA100, Metabolic Activation: RAT, NADPH-FORTIFIED HOMOGENIZED HEPATOCYTES, AROCLOR 1254, Method: PREINCUBATION).
As for `FC(Cl)C(F)(F)C(F)(F)Cl` (stereo unspecified), the mutagenic call reads like this: under setting [5], “inactive; negative”; (Test System: AMES SALMONELLA TYPHIMURIUM, Strain/Indicator: TA98, Metabolic Activation: RAT LIVER S-9, PHENOBARBITAL, 5,6-BENZOFLAVONE, Method: STANDARD PLATE) “inactive; negative”; under setting [3], “inactive; negative”; (Test System: AMES SALMONELLA TYPHIMURIUM, Strain/Indicator: TA100, Metabolic Activation: RAT LIVER S-9, PHENOBARBITAL, 5,6-BENZOFLAVONE, Method: STANDARD PLATE) “inactive; negative”; (Test System: AMES SALMONELLA TYPHIMURIUM, Strain/Indicator: TA1535, Metabolic Activation: NONE, Method: STANDARD PLATE) “inactive; negative”; (Test System: AMES SALMONELLA TYPHIMURIUM, Strain/Indicator: TA1535, Metabolic Activation: RAT LIVER S-9, PHENOBARBITAL, 5,6-BENZOFLAVONE, Method: STANDARD PLATE) “inactive; negative”. For the same molecule, the mutagenic call is “inactive; negative” (Test System: AMES SALMONELLA TYPHIMURIUM, Strain/Indicator: TA1537, Metabolic Activation: NONE, Method: STANDARD PLATE); “inactive; negative” (Test System: AMES SALMONELLA TYPHIMURIUM, Strain/Indicator: TA1537, Metabolic Activation: RAT LIVER S-9, PHENOBARBITAL, 5,6-BENZOFLAVONE, Method: STANDARD PLATE); “inactive; negative” (Test System: ESCHERICHIA COLI, Strain/Indicator: WP2 UVR A, Metabolic Activation: NONE, Method: STANDARD PLATE); “inactive; negative” (Test System: ESCHERICHIA COLI, Strain/Indicator: WP2 UVR A, Metabolic Activation: RAT LIVER S-9, PHENOBARBITAL, 5,6-BENZOFLAVONE, Method: STANDARD PLATE); “inactive; negative” (Test System: UDS RAT HEPATOCYTES IN VIVO, Strain/Indicator: THYMIDINE INCORPORATION, Metabolic Activation: NONE, Method: INHALATION (6HR, NOSE-ONLY, 2-OR 16-HR HARVEST)/AUTORADIOGRAPHY).
As for `O=Cc1ccc2ccc3cccc4ccc1c2c34`, the mutagenic call under setting [6] was “active; positive” and the mutagenic call under setting [7] was “active; positive”.
For `Cc1ccc2cc3ccccc3cc2c1`, the mutagenic call is, setting by setting: under setting [4], “inactive; negative”; (Test System: AMES SALMONELLA TYPHIMURIUM, Strain/Indicator: TA97, Metabolic Activation: RAT, LIVER, S-9, PCB, Method: STANDARD PLATE) “active; positive”; under setting [5], “inactive; negative”; under setting [6], “inactive; negative”; (Test System: AMES SALMONELLA TYPHIMURIUM, Strain/Indicator: TA98, Metabolic Activation: RAT, LIVER, S-9, PCB, Method: STANDARD PLATE) “inactive; negative”; under setting [3], “inactive; negative”. Further, the mutagenic call reads like this: under setting [7], “inactive; negative”; (Test System: AMES SALMONELLA TYPHIMURIUM, Strain/Indicator: TA100, Metabolic Activation: RAT, LIVER, S-9, PCB, Method: STANDARD PLATE) “inactive; negative”.
Take `O=c1c2c(O)cccc2oc2cc3c(c(O)c12)[C@@H]1C=CO[C@@H]1O3`: the mutagenic call was “inactive; negative” under setting [1] and “inactive; negative” under setting [2].

The values above are taken from PubChem BioAssay AID1259407 (Chemical Carcinogenesis Research Information System (CCRIS), 2018).
